The source of these data is ChEMBL document CHEMBL1949505, “Total synthesis and structure-activity relationships of new echinocandin-like antifungal cyclolipohexapeptides” (2012).

One may read the MIC80 as the lowest concentration that inhibits either 80% of growth or 80% of the strains tested, depending on the study. A lower MIC80 goes with greater potency.

What all share (format): functional
Test [1] relates to Candida albicans. Briefly: Antifungal activity against Candida albicans after 24 hrs by serial dilution method.
The subject of the next test is Candida tropicalis. Briefly: Antifungal activity against Candida tropicalis after 24 hrs by serial dilution method.
The subject of another test is Candida parapsilosis. Briefly: Antifungal activity against Candida parapsilosis after 24 hrs by serial dilution method. The note with it: Lodderomyces parapsilosis.
A further test concerns Pichia kudriavzevii. Briefly: Antifungal activity against Candida krusei after 24 hrs by serial dilution method.
A further test concerns Cryptococcus neoformans. In words: Antifungal activity against Cryptococcus neoformans after 72 hrs by serial dilution method.
A further test relates to Aspergillus fumigatus. Briefly: Antifungal activity against Aspergillus fumigatus after 7 days by serial dilution method. Particulars: 168 h.
The test system of another test is Trichophyton rubrum. Briefly: Antifungal activity against Trichophyton rubrum after 7 days by serial dilution method. Particulars: 168 h.
For test [2], the system named is Candida albicans. Briefly: Ratio of caspofungin MIC to compound MIC for Candida albicans by serial dilution method.

Bridge positions count the residues as written; N and C are the ends. Square brackets hold non-standard residues; d marks the D form. Peptide text beside a SMILES is read from it. * marks the point of attachment. pTerphenylCO(4''-OnC5H11) = CCCCCOc1ccc(-c2ccc(-c3ccc(C(=O)*)cc3)cc2)cc1; 2Naphthoyl(6-heptyloxy) = CCCCCCCOc1ccc2cc(C(=O)*)ccc2c1; 2Naphthoyl(6-octyloxy) = CCCCCCCCOc1ccc2cc(C(=O)*)ccc2c1; X2 = CCCCCCCOc1ccc(-c2ccc(-c3ccc(C(=O)*)cc3)cc2)cc1; X1 = CCCOc1ccc(-c2ccc(-c3ccc(C(=O)*)cc3)cc2)cc1; Pro(4S-NH2) = N[C@@H]1CN[C@H](C(=O)O)C1; hTyr = N[C@@H](CCc1ccc(O)cc1)C(=O)O; Orn = NCCC[C@H](N)C(=O)O

As for `CCCCCCCOc1ccc2cc(C(=O)N[C@H]3CCCNC(=O)[C@@H]4C[C@H](N)CN4C(=O)[C@H](CCCN)NC(=O)[C@H](CCc4ccc(O)cc4)NC(=O)[C@@H]4CCCN4C(=O)[C@H]([C@@H](C)O)NC3=O)ccc2c1.Cc1ccc(S(=O)(=O)O)cc1` ({2Naphthoyl(6-heptyloxy)}-[Orn]TP[hTyr][Orn][Pro(4S-NH2)]; lactam 1-C), the MIC80 in the test with Candida albicans [1] stood at 0.25 µg/mL; in the test with Candida tropicalis, 32 µg/mL; in the test with Candida parapsilosis, 4 µg/mL; against Pichia kudriavzevii it was 1 µg/mL; with Cryptococcus neoformans, 32 µg/mL; in the test with Aspergillus fumigatus it was 1 µg/mL. Further, the MIC80 against Trichophyton rubrum worked out at 32 µg/mL.
In the case of `CCCCCCCCOc1ccc2cc(C(=O)N[C@H]3CCCNC(=O)[C@@H]4C[C@H](N)CN4C(=O)[C@H](CCCN)NC(=O)[C@H](CCc4ccc(O)cc4)NC(=O)[C@@H]4CCCN4C(=O)[C@H]([C@@H](C)O)NC3=O)ccc2c1.Cc1ccc(S(=O)(=O)O)cc1` ({2Naphthoyl(6-octyloxy)}-[Orn]TP[hTyr][Orn][Pro(4S-NH2)]; lactam 1-C), the MIC80 against Candida albicans [1] was determined as 0.5 µg/mL; against Candida tropicalis it was 4 µg/mL; against Candida parapsilosis it was 4 µg/mL; against Pichia kudriavzevii it was 1 µg/mL; in the test on Cryptococcus neoformans it was 32 µg/mL; in the test on Aspergillus fumigatus, 1 µg/mL. The MIC80 in the test on Trichophyton rubrum stood at 32 µg/mL.
Turning to `CCCCCCCOc1ccc(-c2ccc(-c3ccc(C(=O)N[C@H]4CCCNC(=O)[C@@H]5C[C@H](N)CN5C(=O)[C@H](CCCCN)NC(=O)[C@H](CCc5ccc(O)cc5)NC(=O)[C@@H]5CCCN5C(=O)[C@H](C(C)C)NC4=O)cc3)cc2)cc1.Cc1ccc(S(=O)(=O)O)cc1` (X2-[Orn]VP[hTyr]K[Pro(4S-NH2)]; lactam 1-C), the MIC80 in the test with Candida albicans [1] came out at 1 µg/mL; in the test with Candida tropicalis, 16 µg/mL; against Candida parapsilosis it was 4 µg/mL; against Pichia kudriavzevii it was 2 µg/mL; with Cryptococcus neoformans it was 32 µg/mL; against Aspergillus fumigatus it was 1 µg/mL. This compound also gave an MIC80 against Trichophyton rubrum of 16 µg/mL.
`CCCCCCCCOc1ccc2cc(C(=O)N[C@H]3CCCNC(=O)[C@@H]4C[C@H](N)CN4C(=O)[C@H](CCCN)NC(=O)[C@H](CCc4ccc(O)cc4)NC(=O)[C@@H]4CCCN4C(=O)[C@H](C(C)C)NC3=O)ccc2c1.Cc1ccc(S(=O)(=O)O)cc1` ({2Naphthoyl(6-octyloxy)}-[Orn]VP[hTyr][Orn][Pro(4S-NH2)]; lactam 1-C): the MIC80 turned out to be 0.5 µg/mL in the test on Candida albicans [1]; 16 µg/mL with Candida tropicalis; 2 µg/mL against Candida parapsilosis; 2 µg/mL in the test on Pichia kudriavzevii; 16 µg/mL against Cryptococcus neoformans; 1 µg/mL against Aspergillus fumigatus. The MIC80 in the test on Trichophyton rubrum came out at 16 µg/mL.
As to `CCCCCOc1ccc(-c2ccc(-c3ccc(C(=O)N[C@H]4CCCNC(=O)[C@@H]5C[C@H](N)CN5C(=O)[C@H](CCCN)NC(=O)[C@H](CCc5ccc(O)cc5)NC(=O)[C@@H]5CCCN5C(=O)[C@H](C(C)C)NC4=O)cc3)cc2)cc1.Cc1ccc(S(=O)(=O)O)cc1` ({pTerphenylCO(4''-OnC5H11)}-[Orn]VP[hTyr][Orn][Pro(4S-NH2)]; lactam 1-C), the MIC80 with Candida albicans [1] amounted to 1 µg/mL; in the test on Candida tropicalis, 8 µg/mL; in the test with Candida parapsilosis it was 4 µg/mL; in the test with Pichia kudriavzevii, 2 µg/mL; with Cryptococcus neoformans, 32 µg/mL; against Aspergillus fumigatus it was 0.5 µg/mL. For the same compound, the MIC80 in the test on Trichophyton rubrum came to 32 µg/mL.
With `CCCOc1ccc(-c2ccc(-c3ccc(C(=O)N[C@H]4CCCNC(=O)[C@@H]5C[C@H](N)CN5C(=O)[C@H](CCCN)NC(=O)[C@H](CCc5ccc(O)cc5)NC(=O)[C@@H]5CCCN5C(=O)[C@H]([C@@H](C)O)NC4=O)cc3)cc2)cc1.Cc1ccc(S(=O)(=O)O)cc1` (X1-[Orn]TP[hTyr][Orn][Pro(4S-NH2)]; lactam 1-C), the MIC80 turned out to be 0.125 µg/mL against Candida albicans [1]; 8 µg/mL in the test on Candida tropicalis; 4 µg/mL with Candida parapsilosis; 0.5 µg/mL in the test on Pichia kudriavzevii; 32 µg/mL in the test on Cryptococcus neoformans; 2 µg/mL in the test on Aspergillus fumigatus. Further, in the test with Trichophyton rubrum, the MIC80 was 64 µg/mL. Moreover, the Ratio in the test on Candida albicans [2] was found to be 4.
For `CCCCCCOc1ccc2cc(C(=O)N[C@H]3CCCNC(=O)[C@@H]4C[C@H](N)CN4C(=O)[C@H]([C@H](C)O)NC(=O)[C@H](CCc4ccc(O)cc4)NC(=O)[C@@H]4C[C@H](N)CN4C(=O)[C@H]([C@@H](C)O)NC3=O)ccc2c1.Cc1ccc(S(=O)(=O)O)cc1`, the MIC80 against Candida albicans [1] is 2 µg/mL; against Candida tropicalis it was 64 µg/mL; in the test on Candida parapsilosis it was 32 µg/mL; in the test with Pichia kudriavzevii, 2 µg/mL; against Cryptococcus neoformans, > 64 µg/mL; in the test with Aspergillus fumigatus, > 64 µg/mL. Further, the MIC80 against Trichophyton rubrum is > 64 µg/mL.
For the compound `CCCCCCCOc1ccc2cc(C(=O)N[C@H]3CCCNC(=O)[C@@H]4C[C@H](N)CN4C(=O)[C@H](CCCCN)NC(=O)[C@H](CCc4ccc(O)cc4)NC(=O)[C@@H]4CCCN4C(=O)[C@H]([C@@H](C)O)NC3=O)ccc2c1.Cc1ccc(S(=O)(=O)O)cc1` ({2Naphthoyl(6-heptyloxy)}-[Orn]TP[hTyr]K[Pro(4S-NH2)]; lactam 1-C), the MIC80 in the test on Candida albicans [1] is 0.125 µg/mL; with Candida tropicalis, 16 µg/mL; against Candida parapsilosis, 4 µg/mL; in the test on Pichia kudriavzevii, 0.5 µg/mL; with Cryptococcus neoformans it was 64 µg/mL; in the test with Aspergillus fumigatus, 1 µg/mL. The same compound yielded an MIC80 against Trichophyton rubrum of 32 µg/mL. Also, in the test with Candida albicans [2], the Ratio was found to be 4.
As to `CCCCCCCOc1ccc(-c2ccc(-c3ccc(C(=O)N[C@H]4CCCNC(=O)[C@@H]5C[C@H](N)CN5C(=O)[C@H](CCCN)NC(=O)[C@H](CCc5ccc(O)cc5)NC(=O)[C@@H]5CCCN5C(=O)[C@H](C(C)C)NC4=O)cc3)cc2)cc1.Cc1ccc(S(=O)(=O)O)cc1` (X2-[Orn]VP[hTyr][Orn][Pro(4S-NH2)]; lactam 1-C), the MIC80 worked out at 1 µg/mL against Candida albicans [1]; 16 µg/mL in the test with Candida tropicalis; 8 µg/mL in the test with Candida parapsilosis; 2 µg/mL in the test on Pichia kudriavzevii; 64 µg/mL against Cryptococcus neoformans; 1 µg/mL against Aspergillus fumigatus. In the test on Trichophyton rubrum, the MIC80 turned out to be 32 µg/mL.
`CCCCCOc1ccc(-c2ccc(-c3ccc(C(=O)N[C@H]4CCCNC(=O)[C@@H]5C[C@H](N)CN5C(=O)[C@H](CCCCN)NC(=O)[C@H](CCc5ccc(O)cc5)NC(=O)[C@@H]5CCCN5C(=O)[C@H]([C@@H](C)O)NC4=O)cc3)cc2)cc1.Cc1ccc(S(=O)(=O)O)cc1` ({pTerphenylCO(4''-OnC5H11)}-[Orn]TP[hTyr]K[Pro(4S-NH2)]; lactam 1-C): the MIC80 stood at 0.5 µg/mL in the test with Candida albicans [1]; 8 µg/mL in the test with Candida tropicalis; 2 µg/mL against Candida parapsilosis; 1 µg/mL against Pichia kudriavzevii; 16 µg/mL with Cryptococcus neoformans; 1 µg/mL with Aspergillus fumigatus. Besides, the MIC80 in the test on Trichophyton rubrum was 32 µg/mL.
